Counter-ions that a name gives are not always drawn.
How the values were obtained:
[1] = Neurotoxicity (rotating rod / rotorod), mice; settings: mouse, in vivo
Method: (§1) In the neurotoxicity test, the value (NTD50) is defined as the dose necessary to cause 50% of mice or rats trained to walk a rotating wooden rod (5 rpm) to fall at the time of peak effect, and is a measure of drug effects on motor function or central nervous system toxicity. The results set forth in Table III were obtained when the compound of Example 6 was tested against chlorpromazine and chlordiazepoxide.

[2] = test system: mice trained to walk a rotating wooden rod; assay: Neurotoxicity (rotating rod / rotorod), mice; settings: mouse, in vivo
Method: as §1

[3] = test system: isolation-induced fighting in mice; assay: Isolated fighting mouse (IFM) test / isolated mouse aggression; type: in vivo; settings: for protected test animals in the IFM test: dose not restated in this sentence
Method: *IFM - Isolated fighting mouse test at a dose of 30 mg/kg
intraperitoneally; those compounds which protected at least 40% of the
(§2) Two models of aggression are used in the primary screening for neuroleptics, (1) isolation-induced fighting in mice (IFM), and (2) aggression induced in rats by destruction of the septal area (septal rat). Compounds are first submitted, however, to the neuropharmacological profile, a standard procedure (see, e.g., Samuel Irwin, Science, 136, 123 [1962]) employed in screening a compound to determine its usefulness as a central nervous system active compound. Those agents which cause depression over a wide dose range are then submitted to the first anti-aggression screen, the isolation-induced fighting mouse assay.
(§3) The compound of Example 6 was compared with chlorpromazine and chlordiazepoxide for its anti-aggressive activity. Three models of experimentally-induced aggression in rodents were studied (R. D. Sofia, Life Science, 8: 705, 1969).

[4] = test system: aggression induced in rats by destruction of the septal area; assay: Septal rat aggression; type: in vivo
Excerpt: as §2, §3

[5] = test system: isolation-induced fighting in mice; assay: Isolated fighting mouse (IFM) test / isolated mouse aggression; type: in vivo; settings: ip, 60 mg/kg intraperitoneally, read-out: IFM % protected
[6] = test system: tetrabenazine-induced ptosis in mice; settings: stated as known comparison; cited from earlier work

| Compound | TD50 [1] [mg/kg] | depression [2] | responders at 30 mg/kg ([3]; Mus musculus, ip, 30 mg/kg intraperitoneally, at least 40% protected = active) [%] | ED50 ([3]; Mus musculus, ip, i.p. administration, read-out: ED50 (IFM)) [mg/kg] | protected test animals in the IFM test [3] [%] | septal rat aggression, protection ([4]; 6.25 mg/kg i.p.) [%] | septal rat aggression, protection ([4]; 12.5 mg/kg i.p.) [%] | ED50 ([4]; Rattus norvegicus, ip, indicated by 100% protection at 6.25 mg/kg, read-out: ED50, septal rat aggression) [mg/kg] | responders at 60 mg/kg [5] [%] | reversal of tetrabenazine-induced ptosis by anti-depressants [6] |
| --- | --- | --- | --- | --- | --- | --- | --- | --- | --- | --- |
| Cc1ccc(NN=Nc2ccccc2C(N)=O)cc1Cl [Example 3, 2-[3-(3-chloro-4-methylphenyl)-1(or 2)-triazeno]-benzamide] | > 100 | do not cause depression | 100 | 9.1 | 100 |  |  |  |  |  |
| Cc1nc(NN=Nc2ccccc2C(=O)NCCCN(C)C)sc1C(=O)NCc1ccccc1 [Example 7, N-(3-dimethylaminopropyl)-2-[3-(4-methyl-5-(N-benzylcarbamoyl)-2-thiazolyl)-2(or 1)-triazeno]-benzamide (2:1) sulfate salt] | > 100 | do not cause depression |  |  | 100 | 100 | 100 | < 6.25 | 100 |  |
| CNCCCN1c2ccccc2CCc2ccccc21 [desipramine] |  |  |  |  |  |  |  |  |  | reverse tetrabenazine-induced ptosis |
| CN(C)CCC=C1c2ccccc2CCc2ccccc21 [amitriptyline] |  |  |  |  |  |  |  |  |  | reverse tetrabenazine-induced ptosis |
